Measurements reported in patent US20230364051A1, “FORMULATIONS AND METHODS FOR IMPROVING AVIAN HEALTH” (CORNELL UNIVERSITY, priority 2022, published 2023).
Marks after values point to notes of the source that are not given here.

Columns and labels:
Hepcidin [1] = assay: Liver gene expression by RT-qPCR: hepcidin; format: in vivo, Gallus gallus; details: genistein exposure vs no injection, p < 0.05
Experimental: (§1) Cornish-cross fertile broiler eggs (Gallus gallus, n = 39) were obtained from a commercial hatchery (Moyer’s chicks, Quakertown, PA, USA). The eggs were incubated under optimal conditions at the Cornell University Animal Science Poultry Farm Incubator [18]. All animal protocols were approved by Cornell University Institutional Animal Care and Use committee (IACUC #2020-0077). At day 17 of embryonic incubation, eggs containing viable embryos were weighed and divided into 5 groups, with all treatment groups assigned eggs of similar weight frequency distribution. Each group was then injected with the specific solution (1 mL per egg) with a 21-gauge needle into the amniotic fluid. Treatments in powder form were separately diluted in DI H2O. […]
(§2) Total RNA was extracted from 30 mg of the proximal duodenal (n=6) or liver tissues (n=6) using Qiagen RNeasy Mini Kit (Qiagen Inc., Valencia, CA) according to the manufacturer’s protocol. […] RNA was quantified by absorbance at 260-280 nm using a NanoDrop 2000 (ThermoFisher Scientific, Waltham, MA). […]
(§3) As previously described. cDNA was generated using a 20 uL reverse transcriptase (RT) reaction in a BioRad C1000 touch thermocycler using the Improm-II Reverse Transcriptase Kit (Catalog #A1250; Promega, Madison, WI, USA). […] Genomic DNA contamination was assessed using a RT-PCR assay for the reference of genes samples. […]

[2] = Blood hemoglobin (QuantiChrom Hemoglobin Assay) at hatch after intraamniotic administration; format: in vivo, Gallus gallus; details: for Average Hb: day 17, blood at hatch
Experimental: Cornish-cross fertile broiler eggs (Gallus gallus, n = 39) were obtained from a commercial hatchery (Moyer’s chicks, Quakertown, PA, USA). The eggs were incubated under optimal conditions at the Cornell University Animal Science Poultry Farm Incubator [18]. […] Each group was then injected with the specific solution (1 mL per egg) with a 21-gauge needle into the amniotic fluid. Treatments in powder form were separately diluted in DI H2O. […] After injection, the injection holes were sealed with cellophane tape and the eggs were placed in hatching baskets such that each treatment was equally represented at each incubator location. Immediately upon hatch (day 21), blood was taken for hemoglobin determination and all chicks were then euthanized by CO2 exposure. The small intestine, pectoral muscle, cecum, and liver were collected, immediately frozen in liquid nitrogen, and then stored in a -80° C. freezer until analysis.
Blood was collected using micro-hematocrit heparinized capillary tubes (Fisher Scientific, Waltham, MA, USA). Blood Hb concentrations were determined spectrophotometrically using the QuantiChromTM Hemoglobin Assay (DIHB-250, BioAssay Systems, Hayward, CA, USA) following the kit manufacturer’s instructions.

hepcidin [3] = details: human hepatocytes; cited from earlier work
glial cells = details: via ceruloplasmin and ferroportin-1; cited from earlier work
[4] = system: cecal microbiota pathways; assay: Cecal 16S rRNA gene sequencing, LEfSe analysis; format: in vivo, Gallus gallus; details: genistein treatment; cecal contents
Experimental: Cornish-cross fertile broiler eggs (Gallus gallus, n = 39) were obtained from a commercial hatchery (Moyer’s chicks, Quakertown, PA, USA). The eggs were incubated under optimal conditions at the Cornell University Animal Science Poultry Farm Incubator [18]. All animal protocols were approved by Cornell University Institutional Animal Care and Use committee (IACUC #2020-0077). At day 17 of embryonic incubation, eggs containing viable embryos were weighed and divided into 5 groups, with all treatment groups assigned eggs of similar weight frequency distribution. Each group was then injected with the specific solution (1 mL per egg) with a 21-gauge needle into the amniotic fluid. Treatments in powder form were separately diluted in DI H2O. Two treatment groups (1.25, 2.5 wt. %), two controls (H2O and non-injected), and a positive control (5 wt. % inulin) were administered. After injection, the injection holes were sealed with cellophane tape and the eggs were placed in hatching baskets such that each treatment was equally represented at each incubator location. Immediately upon hatch (day 21), blood was taken for hemoglobin determination and all chicks were then euthanized by CO2 exposure. The small intestine, pectoral muscle, cecum, and liver were collected, immediately frozen in liquid nitrogen, and then stored in a -80° C. freezer until analysis. […]

ZIP6 = assay: Duodenal gene expression by RT-qPCR: ZIP6; format: in vivo, Gallus gallus; details: 2.5 wt. % genistein vs all other treatment groups, p < 0.05; duodenum
Experimental: as §1, §2, §3

O=c1c(-c2ccc(O)cc2)coc2cc(O)cc(O)c12 [Genistein, genistein]
Gene expression of hepcidin (Hepcidin [1]): significantly upregulated | Average Hb ([2]; 1.25 wt. % genistein intraamniotic): 14.98 ± 0.45 ^a g/dL | Blood hemoglobin (Hb) levels vs controls ([2]; 1.25 wt. % genistein vs No Injection, H2O and 5 wt. % inulin, p < 0.05): significantly elevated | Average Hb ([2]; 2.5 wt. % genistein intraamniotic): 14.23 ± 0.79 ^ab g/dL | Blood hemoglobin vs controls ([2]; 2.5 wt. % genistein vs H2O and 5 wt. % inulin): significantly higher | Blood hemoglobin vs control ([2]; 2.5 wt. % genistein vs No Injection): higher | Hepcidin transcription levels and promoter activity (hepcidin [3]): increased | Fe export (glial cells): significantly increased | Pathways associated with de novo synthesis of vitamin B12 (LEfSe) [4]: enriched | Gene expression of ZIP6 (ZIP6): significantly downregulated
